Entries after “also recorded” stand apart in the source; their conditions may differ.
Experiments:
[1] = from CN1C(=O)C(c2c[nH]c3ccccc23)=C(c2cn(CCCOC(CCI)CO[Si](c3ccccc3)(c3ccccc3)C(C)(C)C)c3ccccc23)C1=O; amine bond; cesium carbonate; DMF; 5.85 mM; 83.0 h
protein kinase C = conditions: literature; cited from earlier work
casein protein kinase II = molecular target: T1, casein protein kinase II (Rattus norvegicus, UniProt P19139); test: Casein Protein Kinase II Assay (CK-II); format: biochemical; conditions: Table 1
T1 construct: isolated from rat brain homogenate; from tissue; host or cells: rat brain homogenate
T1 sequence (P19139 whole entry): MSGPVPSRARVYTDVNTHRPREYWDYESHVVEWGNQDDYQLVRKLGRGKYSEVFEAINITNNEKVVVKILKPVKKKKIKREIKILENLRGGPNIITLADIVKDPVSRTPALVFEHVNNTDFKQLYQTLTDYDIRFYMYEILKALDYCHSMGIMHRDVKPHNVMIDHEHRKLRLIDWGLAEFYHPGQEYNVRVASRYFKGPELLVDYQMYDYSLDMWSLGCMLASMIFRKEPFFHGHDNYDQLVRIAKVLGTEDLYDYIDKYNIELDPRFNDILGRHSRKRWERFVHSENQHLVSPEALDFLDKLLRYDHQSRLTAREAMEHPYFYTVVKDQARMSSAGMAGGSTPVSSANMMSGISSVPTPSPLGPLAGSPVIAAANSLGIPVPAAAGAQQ
T1 sequence (P67874 2-215 partner limits assumed): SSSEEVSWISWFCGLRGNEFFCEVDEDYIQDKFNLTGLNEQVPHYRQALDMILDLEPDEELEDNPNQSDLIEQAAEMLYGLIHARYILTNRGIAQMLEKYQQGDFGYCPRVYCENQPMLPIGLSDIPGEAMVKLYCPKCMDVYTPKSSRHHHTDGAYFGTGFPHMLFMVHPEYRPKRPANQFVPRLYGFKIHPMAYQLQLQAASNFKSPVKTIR
Protocol: Casein Protein Kinase II Assay (CK-II)
The Casein Protein Kinase II Assay is described in Neurochem. […] The assay components are in a total volume of 250 μL: 20 mM Tris-HCl, pH 7.5, 5 mM sodium fluoride, 50 mg/mL Casein (Sigma, St. Louis, Mo.), 10 mM magnesium chloride (Sigma, St. Louis, Mo.), 10 μL DMSO or DMSO/inhibitor and 30 μm (gamma-32P) ATP (DuPont). Initiation of the reaction is performed by addition of casein protein kinase II (isolated from rat brain homogenate), incubated at room temperature for 10 minutes and stopped by the addition of 0.5 mL ice cold Trichloroacetic acid (Amresco) followed by 100 μL of 1 mg/mL bovine serum albumin (Sigma, St. Louis, Mo.). The precipitate is collected by vacuum filtration on glass fiber filters and quantified by counting in a beta scintillation counter.
Assay components in order of addition
10 μL or DMSO or DMSO/inhibitor
25 μL of AT32P in 300 μM magnesium chloride
40 μL of enzyme (undiluted)
Buffer prepared as follows:
(Final volume=3.5 mL: amount of 20 assays)

PKC gamma = PKC gamma (Homo sapiens, UniProt P05129); test: PKC Enzyme Assay, gamma isozyme; format: biochemical; conditions: Table 2; read-out: Isozymes ED50 γ
Protocol: (§1) PKC enzymes=alpha, beta I, beta II, gamma, delta, epsilon, eta and zeta.
(§2) Assay components in a total volume of 250 μL are as follows:
(§3) For all the enzymes either histone type HL (Worthington) or myelin basic protein is used as substrate. The assay is started by addition of protein kinase C enzyme incubated at 30° C. for 10 minutes and stopped by adding 0.5 mL of cold trichloroacetic acid (Amresco) followed by 100 μL of 1 mg/mL bovine serum albumin (Sigma, St. Louis, Mo.). The precipitate is collected by vacuum filtration on glass fiber filters employing a TOMTEC™ filtration system and quantified by counting in a beta scintillation counter.

[2] = molecular target: T2, cAMP-dependent kinase catalytic subunit (Bos taurus, UniProt P00517); test: cAMP-Dependent protein Kinase Catalytic Subunit Assay; format: biochemical, bovine; conditions: Table 1
T2 construct: purchased Sigma, St. Louis, Mo; host or cells: bovine heart
Protocol: cAMP-Dependent protein Kinase Catalytic Subunit Assay (PEA) The Assay components are in a total volume of 250 μL: 20 mM HEPES (Sigma, St. Louis, Mo.) buffer pH 7.5, 200 μg/mL histone type HL (Worthington), 10 mM magnesium chloride (Sigma, St. […] The reaction is initiated by addition of bovine heart cAMP-dependent kinase catalytic subunit (Sigma, St. Louis, Mo.), incubated to 30° C. for 10 minutes and stopped by adding 0.5 mL ice cold Trichloroacetic acid (Amresco) followed by 100 μL of 1 mg/mL bovine serum albumin (Sigma). The precipitate is collected by vacuum filtrated on glass fiber filters employing a TOMTEC™ and quantified by counting in a beta scintillation counter. This assay is done identical to the protein kinase C (PKC) enzyme assay except that no phospholipids or diacylglycerol are employed in the assay and the histone substrate is specific for the cAMP-dependent catalytic subunit enzyme.

PKC eta = PKC eta (Homo sapiens, UniProt P24723); test: PKC Enzyme Assay, eta isozyme; format: biochemical; conditions: Table 2; read-out: Isozymes ED50 eta
PKC eta, sequence (P24723 whole entry): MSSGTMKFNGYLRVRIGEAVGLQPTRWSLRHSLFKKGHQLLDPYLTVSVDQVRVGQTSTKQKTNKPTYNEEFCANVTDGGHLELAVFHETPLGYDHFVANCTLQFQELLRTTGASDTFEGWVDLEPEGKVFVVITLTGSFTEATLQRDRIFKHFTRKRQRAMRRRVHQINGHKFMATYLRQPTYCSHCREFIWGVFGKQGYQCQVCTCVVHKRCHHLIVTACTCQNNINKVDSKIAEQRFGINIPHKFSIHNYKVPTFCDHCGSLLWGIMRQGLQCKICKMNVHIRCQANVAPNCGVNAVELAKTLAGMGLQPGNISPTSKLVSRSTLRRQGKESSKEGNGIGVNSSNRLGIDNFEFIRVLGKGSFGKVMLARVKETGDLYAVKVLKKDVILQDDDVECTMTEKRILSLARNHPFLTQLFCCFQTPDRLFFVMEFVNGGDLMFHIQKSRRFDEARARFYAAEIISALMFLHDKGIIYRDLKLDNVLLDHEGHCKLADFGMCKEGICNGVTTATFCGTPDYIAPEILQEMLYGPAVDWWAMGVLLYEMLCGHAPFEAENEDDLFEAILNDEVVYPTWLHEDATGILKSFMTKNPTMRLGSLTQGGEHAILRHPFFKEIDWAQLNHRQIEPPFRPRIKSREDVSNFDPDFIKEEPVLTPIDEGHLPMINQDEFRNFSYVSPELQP
Protocol: as §1, §2, §3

[3] = molecular target: calcium calmodulin dependent protein kinase; test: Calcium Calmodulin Dependent Protein Kinase Assay (CAM); format: biochemical, rat; conditions: Table 1
Protocol: Calcium Calmodulin Dependent Protein Kinase Assay (CAM)
The reaction is initiated by the addition of calcium calmodulin dependent protein kinase (isolated from rat brain homogenate), incubated at room temperature for 10 minutes and stopped by adding 0.5 mL ice cold trichloroacetic acid (Amresco) followed by 100 μL of 1 mg/mL bovine serum albumin (Sigma, St. Louis, Mo.). The precipitate is collected by vacuum filtration on glass fiber filters and quantified by counting in a beta scintillation counter.
25 μL calmodulin (250 μg/mL)
10 μL DMSO or DMSO/inhibitor

PKC-β2 = PKC-β2 (Homo sapiens, UniProt P05771); test: PKC Enzyme Assay, beta-2 isozyme; format: biochemical; conditions: Table 1
PKC-β2, sequence (P05771 1-673 isoform P05771-2): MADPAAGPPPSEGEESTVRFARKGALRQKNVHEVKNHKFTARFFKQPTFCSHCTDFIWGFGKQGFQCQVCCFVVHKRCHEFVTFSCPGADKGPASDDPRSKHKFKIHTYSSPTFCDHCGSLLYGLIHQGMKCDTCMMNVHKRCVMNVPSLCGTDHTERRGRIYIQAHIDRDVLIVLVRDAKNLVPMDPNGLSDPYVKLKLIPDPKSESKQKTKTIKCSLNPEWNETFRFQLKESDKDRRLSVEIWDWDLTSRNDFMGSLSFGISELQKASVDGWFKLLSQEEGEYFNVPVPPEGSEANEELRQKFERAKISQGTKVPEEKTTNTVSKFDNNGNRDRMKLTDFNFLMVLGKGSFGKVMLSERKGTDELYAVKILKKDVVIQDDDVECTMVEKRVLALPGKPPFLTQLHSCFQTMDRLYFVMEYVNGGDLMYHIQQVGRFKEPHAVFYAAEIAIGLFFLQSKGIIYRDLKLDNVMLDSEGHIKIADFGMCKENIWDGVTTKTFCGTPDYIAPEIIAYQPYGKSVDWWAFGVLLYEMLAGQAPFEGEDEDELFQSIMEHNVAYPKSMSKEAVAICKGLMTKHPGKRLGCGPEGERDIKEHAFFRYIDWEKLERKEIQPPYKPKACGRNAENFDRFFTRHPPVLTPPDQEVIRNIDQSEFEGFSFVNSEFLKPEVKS
Protocol: as §1, §2, §3

src = molecular target: T3, src (Homo sapiens, UniProt P12931); test: Protein Tyrosine Kinase Assay (src); format: biochemical; conditions: Table 1
T3 construct: purchased Onogene Science, Inc. PK02 and PK03
T3 sequence (P12931 whole entry, species assumed): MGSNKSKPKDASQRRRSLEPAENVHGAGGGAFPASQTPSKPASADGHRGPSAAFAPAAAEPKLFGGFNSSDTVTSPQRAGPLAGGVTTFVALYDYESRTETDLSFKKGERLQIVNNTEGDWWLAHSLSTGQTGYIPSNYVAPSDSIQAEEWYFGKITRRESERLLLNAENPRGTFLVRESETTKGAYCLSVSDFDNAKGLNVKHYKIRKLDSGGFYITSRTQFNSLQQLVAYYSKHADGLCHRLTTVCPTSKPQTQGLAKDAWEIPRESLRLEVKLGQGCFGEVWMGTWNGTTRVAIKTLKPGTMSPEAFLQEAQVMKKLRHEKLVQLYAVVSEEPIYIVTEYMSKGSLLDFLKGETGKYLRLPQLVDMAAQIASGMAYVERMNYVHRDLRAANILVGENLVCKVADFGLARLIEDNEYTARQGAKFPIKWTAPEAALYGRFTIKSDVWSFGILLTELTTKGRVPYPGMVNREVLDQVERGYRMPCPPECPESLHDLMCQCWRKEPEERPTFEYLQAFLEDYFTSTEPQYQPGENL
Protocol: Protein Tyrosine Kinase Assay (src)
The Assay components are the following:
4 μL DMSO or DMSO/inhibitor

PKC-β1 = PKC-β1 (Homo sapiens, UniProt P05771); test: PKC Enzyme Assay, beta-1 isozyme; format: biochemical; conditions: Table 1
PKC-β1, sequence (P05771 whole entry): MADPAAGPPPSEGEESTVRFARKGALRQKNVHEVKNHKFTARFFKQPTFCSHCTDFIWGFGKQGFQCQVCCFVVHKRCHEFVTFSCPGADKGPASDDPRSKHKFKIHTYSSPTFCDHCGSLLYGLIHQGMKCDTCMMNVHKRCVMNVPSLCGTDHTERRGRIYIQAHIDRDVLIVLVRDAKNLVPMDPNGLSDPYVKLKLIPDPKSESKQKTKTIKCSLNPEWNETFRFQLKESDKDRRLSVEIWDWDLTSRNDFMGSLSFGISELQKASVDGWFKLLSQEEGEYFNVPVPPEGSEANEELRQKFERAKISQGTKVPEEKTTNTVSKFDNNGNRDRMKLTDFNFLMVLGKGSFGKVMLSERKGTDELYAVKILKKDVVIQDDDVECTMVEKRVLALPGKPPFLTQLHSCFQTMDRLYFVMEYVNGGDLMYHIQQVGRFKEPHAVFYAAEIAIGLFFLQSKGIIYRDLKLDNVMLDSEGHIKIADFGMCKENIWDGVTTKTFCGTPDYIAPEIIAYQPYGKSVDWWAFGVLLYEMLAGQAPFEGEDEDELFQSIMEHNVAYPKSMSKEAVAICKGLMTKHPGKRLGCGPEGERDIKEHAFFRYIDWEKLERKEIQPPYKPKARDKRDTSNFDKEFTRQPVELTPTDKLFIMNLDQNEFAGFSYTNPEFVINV
Protocol: as §1, §2, §3

PKC-α = PKC-α (Homo sapiens, UniProt P17252); test: PKC Enzyme Assay, alpha isozyme; format: biochemical; conditions: Table 1
Protocol: as §1, §2, §3

| SMILES | ring closure, yield of all isomers [1] [%] | isozyme selectivity (protein kinase C) | IC50 (casein protein kinase II) [µM] | IC50 (PKC gamma) [nM] | IC50 [2] [µM] | IC50 (PKC eta) [nM] | IC50 [3] [µM] | IC50 (PKC-β2) [nM] | IC50 (src) [µM] | IC50 (PKC-β1) [nM] | IC50 (PKC-α) [µM] |
| --- | --- | --- | --- | --- | --- | --- | --- | --- | --- | --- | --- |
| CN1C(=O)C2=C(C1=O)c1cn(c3ccccc13)CCC(CO[Si](c1ccccc1)(c1ccccc1)C(C)(C)C)OCCCn1cc2c2ccccc21 (stereo not drawn) | 97 |  |  |  |  |  |  |  |  |  |  |
| CN(C)CCCn1cc(C2=C(c3c[nH]c4ccccc34)C(=O)NC2=O)c2ccccc21 [3-[1-(3-dimethylaminopropyl)-indol-3-yl]-4-(1H-indol-3-yl)-1H-pyrrole-2,5-dione] |  | slight selectivity for the calcium dependent isozymes; also recorded: no difference, or possibly slight selectivity, for alpha over beta-1 and beta-2 isozymes |  |  |  |  |  |  |  |  |  |
| CN(C)CC1CCn2cc(c3ccccc32)C2=C(C(=O)NC2=O)c2cn(c3ccccc23)CCO1 (stereo not drawn) [Example 5] |  |  | > 100 | 230 | > 100 | 35 | 4 |  |  |  |  |
| CC(=O)OCC1CCCn2cc(c3ccccc32)C2=C(C(=O)NC2=O)c2cn(c3ccccc23)CC1 (stereo not drawn) [Example 38, 3,4-[(N,N'-1,1'-(3"-(acetoxy)methylene)-hexane)-bis-(3,3'-indolyl)]-1H-pyrrole-2,5-dione] |  |  | > 100 |  | > 100 |  | 9 | 100 | > 100 | 200 | 4 |
| O=C(NCC1CCCn2cc(c3ccccc32)C2=C(C(=O)NC2=O)c2cn(c3ccccc23)CC1)OCc1ccccc1 (stereo not drawn) [Example 39] |  |  | > 100 |  | > 100 |  | > 100 | 300 | > 100 | 400 | 31 |
| O=C1NC(=O)C2=C1c1cn(c3ccccc13)CCCCCCCn1cc2c2ccccc21 [Example 42] |  |  | > 100 |  | > 100 |  | > 100 | 600 | > 100 | 500 | > 100 |
| NC1CCCn2cc(c3ccccc32)C2=C(C(=O)NC2=O)c2cn(c3ccccc23)CCC1 [Example 45] |  |  | > 100 |  | > 100 |  | 39 | 100 | > 125 | 100 | 3 |
| CC(=O)NC1CCCn2cc(c3ccccc32)C2=C(C(=O)NC2=O)c2cn(c3ccccc23)CCC1 [Example 46] |  |  | > 100 |  | > 100 |  | 63 | 40 | > 100 | 40 | 3 |
| O=C1NC(=O)C2=C1c1cn(c3ccccc13)CCCC(NCc1ccccc1)CCCn1cc2c2ccccc21 [Example 47] |  |  | > 100 |  | > 100 |  | 70 | 60 | > 125 | 70 | 2 |
| O=C1NC(=O)C2=C1c1cn(c3ccccc13)CCCC1(CCCn3cc2c2ccccc23)OCCO1 [Example 48] |  |  | > 100 |  | > 100 |  | > 100 | 300 | > 100 | 500 | > 100 |
| O=C1CCCn2cc(c3ccccc32)C2=C(C(=O)NC2=O)c2cn(c3ccccc23)CCC1 [Example 49] |  |  | > 100 |  | > 100 |  | > 100 | 400 | > 100 | 600 | 10 |
